One data set in a line: Dermal toxicity of TP4. The data set is classed as in vivo, C3H/HeN mice. As to conditions: mice, 48 h post-exposure, 125 mg/kg TP4 or 20% SDS (FIG. 17B). The procedure: TP4 (125 mg/kg) was applied onto the mouse skin (topical).
The nature of data set [1]: Eye irritation test of TP4 in New Zealand White rabbits. The data set is classed as in vivo. As to conditions: for Abnormality iris, grading / Chemosis, grading / Conjunctivae redness, grading / Corneal opacity, grading: rabbits, OECD 405 grading. The procedure:
Healthy young adults rabbit eyes were treated with TP4, PBS (vehicle control), or 0.1% SDS (positive control). […] […] Clinical signs were recorded during the test period, and grades were assigned for ocular reactions during examination.

Data set [2] can be described thus: Eye irritation test of Epi-1 in rabbits. As to conditions: for Reversibility: 7 days then recovery. The procedure:
This study used healthy young adults of the New Zealand white albino rabbit breed. […] The eyes were examined on days 1, 3, 5, and 7, and then allowed to recover until day 14; at this time, clinical observation scores were recorded, and grades assigned for ocular reactions observed during each examination.

For data set [3], the system named is H. pylori. Put plainly: Transmission electron microscopy (Epi-1). Format: cell-based, Helicobacter pylori. The procedure: Transmission electron microscopy was used to examine Epi-1 induced morphological changes of H. pylori. The samples were fixed and processed as previously described. All samples were examined with an FEI Tecnai G2 F20 S-TWIN transmission electron microscope (FEI Company, Hillsboro, Oreg.) operating at an accelerating voltage of 80 kV. Images were recorded with a charge-coupled device camera at various magnifications.

Data set [4] deals with H. pylori. Description: Development of drug resistance on passage at sub-inhibitory doses. Format: cell-based, Helicobacter pylori. As to conditions: passages at sub-inhibitory doses in vitro. The text has this:
A major driver of drug resistance development is inappropriate antibiotic use and poor compliance with therapeutic regimens. 28 Here, we established a model for simulating conditions of drug resistance emergence: bacteria were exposed to sub-inhibitory doses of antibiotics (AMOX, CLRN, METZ), or peptide TP4 in vitro (see supplementary material methods).

Data set [5] relates to resistant clinical isolate CI-HC-028. Put plainly: Time-based susceptibility of resistant isolate to TP4 and antibiotics. Format: cell-based, Helicobacter pylori. As to conditions: CI-HC-028, at MIC. The procedure:
(§1) TP4 peptide solutions (100 μl) at concentrations corresponding to ¼, ½, 1, 2, and 4 fold the MIC were prepared and added to an equal volume of solution containing H. pylori counts of approximately 10^7 CFU mL-1 onto a microtitre plate. The plates were incubated at 37° C., and samples were collected at 1, 3, 6, 12, and 24 h and plated with appropriate dilutions onto blood agar plates; bacterial counts were enumerated and expressed as mean log (CFU mL-1) with standard error.
The bactericidal activities of TP4 and conventional antibiotics against resistant clinical isolate CI-HC-028 were compared. Certain resistant strains of H. pylori was previously reported to be resistant to metronidazole and clarithromycin 27. […] Thus, there is no correlation between multidrug resistant (MDR) phenotype and vulnerability to TP4.

Data set [6] has as its system H. pylori. Put plainly: Transmission electron microscopy (TP4). As to conditions: 2 h post exposure. Format: cell-based, Helicobacter pylori. The procedure: Transmission electron microscopy (TEM) was used to examine the TP4 mechanism of action on H. pylori, overall cell morphology, TP4 translocation into H. pylori, and interaction of TP4 with internal targets. H. pylori overnight cultures from BHI-blood agar plates were collected, and 0.1 OD inocula were incubated with TP4, Amoxicillin, and/or PBS (PBS only: negative control). […] The cells were then fixed and processed for TEM using previously described methods, with some modifications. Briefly, cells were dehydrated in a graduated series of ethanol, followed by resin polymerization at 65° C. for 3 days. An EM ultramicrotome was used to slice thin sections of 70- to 80-nm thickness from the polymerized blocks, which were then loaded on 400-mesh copper grids. The sections were post stained with 2% uranyl acetate for 15 min and then lead citrate for 5 min, before being mounted for observation using an FEI Tecnai G2 F20 S-TWIN transmission electron microscope (FEI Company, Hillsboro, Oreg.) operating at 80 keV. […] Each grid was scrutinized with the same settings. Images were recorded with a 4MP SPOT Insight charge-coupled-device (CCD) camera.

The next data set deals with H. pylori ATCC 43629. Format: cell-based, Helicobacter pylori. The procedure:
(§2) H. pylori cells undergoing exponential growth were suspended in sterile phosphate-buffered saline (PBS), and adjusted to 0.05 OD using BHI broth; the inoculum was dispensed onto a microtitre plate. Peptide TP4 was prepared at various concentrations (0.04 to 50 μg mL-1) using PBS. Antibiotic resistant clinical isolate CI-HC-028 and three reference strains were used for susceptibility testing. The MIC was defined as the lowest concentration of the drug at which there was no visible growth. For quality control and comparative analyses, the susceptibility of all four H. pylori strains to the antibiotics amoxicillin, clarithromycin, and metronidazole were also examined.

For another data set, the system named is H. pylori ATCC 43504. The data set is classed as cell-based, Helicobacter pylori. The procedure:
as §2

The subject of a further data set is H. pylori ATCC 700392. Format: cell-based, Helicobacter pylori. The procedure: as §2
The test system of data set [7] is H. pylori. Put plainly: Dose and time-dependent killing by TP4. The data set is classed as cell-based, Helicobacter pylori. As to conditions: at 2×MIC. The procedure:
as §1

Data set [8] deals with H. pylori clinical isolate CI-HC-028. Put plainly: Anti-H. pylori assessment in vitro (MIC), Example 2. Format: cell-based, Helicobacter pylori. As to conditions: NE: No effect. The procedure: as §2
A short description of data set [9]: Sub-acute oral toxicity of Epi-1. The data set is classed as in vivo, mice. The procedure:
Sub-acute oral toxicity was assessed with over a test period of 14 days in which mice were given 600 μg/mouse/day. During the study period, animals were observed daily for clinical signs and mortality.

Data set [10] can be described thus: Acute oral toxicity of Epi-1. As to conditions: 125 mg/kg, mice. The data set is classed as in vivo. The procedure: Acute oral toxicity was assessed in mice with 6 animals per group, by single oral administration of Epi-1 at 125 mg/kg body weight. Animals were placed under observation for about 48 hr. The mortality, morbidity rate, and clinical signs were recorded.

For data set [11] the following is noted: 2.5 mg applied to skin, daily for 7 days, Balb/c mice.
Description: Dermal toxicity was assessed in Balb/c mice, through administering daily doses of Epi-1 (2.5 mg/animal) for 7 days [40, 41]. Animals were kept under observation for a minimum of 48 h. Skin abnormalities were recorded.

Where no end group is shown, it is not given here.

Usually MIC stands for the lowest concentration found to suppress growth. Low readings indicate a more susceptible organism, high ones a less susceptible organism.

Regarding `CCCCCCCCCCCCOS(=O)(=O)[O-].[Na+]` [SDS, reference compound], the “appearance of the skin” value in “Dermal toxicity of TP4” is listed as “no obvious lesions were observed”. Moreover, the ocular appearance result in data set [1] (rabbits treated with 50 mg/kg TP4 or SDS for 7 days, observed daily (FIG. 17A)) was “severe lacrimation, swelling of the eyelids, and elevated blood vessels in conjunctivae”. Moreover, the “Abnormality iris, grading” value in data set [1] (Day 1) was determined as 0; in data set [1] (Day 3), 0; in data set [1] (Day 5), 0; in data set [1] (Day 7), 0; in data set [1] (Recovery, Day 14), 0. Moreover, the “Chemosis, grading” value in data set [1] (Day 1) turned out to be 1.5; in data set [1] (Day 3), 1.5; in data set [1] (Day 5), 2; in [1] (Day 7), 2; in data set [1] (Recovery, Day 14), 1.5. Moreover, the “Conjunctivae redness, grading” value in [1] (Day 1) turned out to be 1; in data set [1] (Day 3), 1; in data set [1] (Day 5) it was 1; in data set [1] (Day 7), 1; in data set [1] (Recovery, Day 14), 0.5. Also, the “Corneal opacity, grading” value in data set [1] (Day 1) worked out at 1; in [1] (Day 3), 1; in data set [1] (Day 5) it was 1; in data set [1] (Day 7), 1; in [1] (Recovery, Day 14) it was 0.5. Also, the “Corneal opacity, Grade” value in data set [2] (rabbit eye, 7 days) amounted to 2. In [2] (rabbit eye, 7 days), the “Redness of conjunctivae, Grade” value is recorded as 1. For the same compound, the Reversibility entry in data set [2] (rabbit eye) is recorded as “No”. In addition, the “Iris lesion, Grade” value in data set [2] (rabbit, in vivo) worked out at 0.

Take `CC1(C)S[C@@H]2[C@H](NC(=O)[C@H](N)c3ccc(O)cc3)C(=O)N2[C@H]1C(=O)O` [amoxicillin]: in the data set on H. pylori [3], the “morphology of H. pylori cells (TEM)” value was “low percentage of coccoid morphology”. Also, the “drug resistance index (MICp/MICs)” value in the data set with H. pylori [4] is “increased slightly after passage 6, and remained constant thereafter”. The compound further showed a killing in [5] (within 24 hr) of 90%. The “ultrastructure of H. pylori cells (TEM)” value with H. pylori [6] is listed as “appeared as ‘ghost’ cells, with loose outer membranes”.

Take `CC[C@H]1OC(=O)[C@H](C)[C@@H](O[C@H]2C[C@@](C)(OC)[C@@H](O)[C@H](C)O2)[C@H](C)[C@@H](O[C@@H]2O[C@H](C)C[C@H](N(C)C)[C@H]2O)[C@](C)(OC)C[C@@H](C)C(=O)[C@H](C)[C@@H](O)[C@]1(C)O` [clarithromycin]: in the data set on H. pylori [4], the “drug resistance index (MICp/MICs)” value is recorded as “gradually increased from passage 3 to the last passage”. Besides, the “time taken to 90% reduction” value in data set [5] was more than 24 h.

As to `Cc1ncc([N+](=O)[O-])n1CCO` [metronidazole], in the data set on H. pylori [4], the “drug resistance index (MICp/MICs)” value is reported as “gradually increased from passage 3 to the last passage”. For the same compound, the “course of cell count” value in data set [5] (24 h) was “initial decrease in cell count, but gradually lost activity”.

With FDWDSVLKGVEGFVRGYF [TP1], the minimum inhibitory concentration (MIC) against H. pylori ATCC 43629, with H. pylori ATCC 43504 and against H. pylori ATCC 700392 was more than 12 µg/mL throughout.

“FIHHIIGGLFSAGKAIHRLIRRRRR [TP4, Nile tilapia piscidin 4]”: the “dose dependent effect against H. pylori (killing)” value in the data set on H. pylori [7] came to 99.99%. Moreover, the minimum inhibitory concentration (MIC) (against H. pylori ATCC 43629; in the data set with H. pylori ATCC 43504; with H. pylori ATCC 700392; in data set [8]) was 1.5 to 3 µg/mL each time.

Take FIHHIIGGLFSVGKHIHSLIHGH [TP3]: the minimum inhibitory concentration (MIC) (in the data set on H. pylori ATCC 43629; in the data set on H. pylori ATCC 43504; with H. pylori ATCC 700392; in [8]) was 8 to 12 µg/mL in each case.

“GFIFHIIKGLFHAGKMIHGLV-NH2 [Epi-1, Epinecidin-1]”: the “whole blood biochemistry (GOT, GPT, BUN, CRE, TBIL, UA)” value in [9] (after acute and sub-acute oral administration) was “no significant changes”. For the same compound, the “clinical abnormalities, morbidity, death” value in [9] (sub-acute oral, 600 μg/mice) is recorded as “did not induce any clinical abnormalities, morbidity, or death”. Also, the ocular signs result in data set [2] (days 2 and 3, 1 mg/eye/day) is reported as “signs of lacrimation”. Further, in data set [2] (rabbit eye, 7 days), the “Corneal opacity, Grade” value was 0; the “Iris lesion, Grade” value was determined as 0; the “Redness of conjunctivae, Grade” value is listed as 0.1. Moreover, the Reversibility result in [2] (rabbit eye) is “yes”. The “clinical abnormalities, morbidity, death” value in data set [10] is “did not induce any clinical abnormalities, morbidity, or death”. For the same compound, in data set [11], the “dermal irritation, lesions, clinical signs” value is recorded as “did not cause any irritation, lesions, or clinical signs”.

Regarding QLQGKQVSGEVVQKVLQELIQSVAKP [TP5], the minimum inhibitory concentration (MIC) (against H. pylori ATCC 43629; in the data set on H. pylori ATCC 43504; in the data set with H. pylori ATCC 700392; in data set [8]) was more than 12 µg/mL each time.

Values taken from US9901615B2, “Method for treatment of gastric ulcers” (priority 2015, dated 2018).
